Test results taken from article PMC12666538.

Key:
[1] = CCClick: 37% aq formaldehyde (5 mM, 5 eq) bridges the two exocyclic methylene carbons of a Fischer base dimer (two C-C bonds), then hemin (1 eq)/air oxidative dehydrogenation, one pot; Al2O3 column; details: the molecule shown is the open-chain precursor, DMF, 1.0 mM, 37.0 °C, 12.0 h
[2] = CCClick: formaldehyde (10 mM) bridges the two exocyclic methylene carbons of a Fischer base dimer (Knoevenagel dehydration cyclization, two C-C bonds), then hemin (1 mM)/air oxidative dehydrogenation to cyclic trimethine cyanine; details: the molecule shown is the open-chain precursor, DMF, 37.0 °C, 12.0 h

| SMILES | ring closure, isolated yield ([1]; 13-membered ring) [%] | ring closure, conversion by HPLC ([2]; 13-membered ring) [%] | further results |
| --- | --- | --- | --- |
| C=C1N(CCCCCCCCCCCCN2C(=C)C(C)(C)c3c2ccc2ccccc32)c2ccc3ccccc3c2C1(C)C [FB9 -> CY-9] | – | – | ring closure, isolated yield ([1]; 19-membered ring): 44%; ring closure, conversion by HPLC ([2]; 19-membered ring): 77% |
| C=C1N(CCCCCCCCCCCCN2C(=C)C(C)(C)c3ccccc32)c2ccccc2C1(C)C [FB6 -> CY-6] | – | – | ring closure, isolated yield ([1]; 19-membered ring): 29%; ring closure, conversion by HPLC ([2]; 19-membered ring): 31% |
| C=C1N(CCCCCCN2C(=C)C(C)(C)c3cc(OC)ccc32)c2ccc(OC)cc2C1(C)C [FB4 -> CY-4] | 40 | 85 | – |
| C=C1N(CCCCCCN2C(=C)C(C)(C)c3ccccc32)c2ccccc2C1(C)C [FB5 -> CY-5] | 26 | 31 | – |
| C=C1N(CCCCCCN2C(=C)C(C)(C)c3c2ccc2ccccc32)c2ccc3ccccc3c2C1(C)C [FB1 -> CY-1] | 62 | 90 | – |
| C=C1N(CCCCCCN2C(=C)C(C)(C)c3c2ccc2ccccc32)c2ccccc2C1(C)C [FB3 -> CY-3] | 35 | 48 | – |
| C=C1N(CCOCCOCCN2C(=C)C(C)(C)c3c2ccc2ccccc32)c2ccc3ccccc3c2C1(C)C [FB8 -> CY-8] | – | – | ring closure, isolated yield ([1]; 15-membered ring): 16%; ring closure, conversion by HPLC ([2]; 15-membered ring): 34% |
| C=C1N(CCCCCCCCCCCCCCCCCCN2C(=C)C(C)(C)c3ccccc32)c2ccccc2C1(C)C [FB7 -> CY-7] | – | – | ring closure, isolated yield ([1]; 25-membered ring): 22%; ring closure, conversion by HPLC ([2]; 25-membered ring): 24% |
| C=C1N(CCCCCCN2C(=C)C(C)(C)c3c2ccc2ccccc32)c2ccc(OCCCCCC[P+](c3ccccc3)(c3ccccc3)c3ccccc3)cc2C1(C)C.[I-] [FB2 -> CY-2] | 57 | 90 | – |
